The source of these data is patent publication US7696246B2 (Ligand Pharmaceuticals Incorporated, priority 1999, dated 2010).

In general, Ki refers to a measure of affinity in units of concentration, obtained from inhibition or displacement. Lower therefore signals a stronger hold on the target. The EC50 is the concentration at which the effect is half-maximal. Low values mean a more potent agent, high ones a less potent agent.

Each structure is given as a SMILES string. Read-outs that look alike come from different tables or passages of the source. Where only a bound is given, the exact number is not on record here.

Test [1] has as its target T1, PR (Homo sapiens, UniProt P06401).
T1 sequence (P06401 1-933): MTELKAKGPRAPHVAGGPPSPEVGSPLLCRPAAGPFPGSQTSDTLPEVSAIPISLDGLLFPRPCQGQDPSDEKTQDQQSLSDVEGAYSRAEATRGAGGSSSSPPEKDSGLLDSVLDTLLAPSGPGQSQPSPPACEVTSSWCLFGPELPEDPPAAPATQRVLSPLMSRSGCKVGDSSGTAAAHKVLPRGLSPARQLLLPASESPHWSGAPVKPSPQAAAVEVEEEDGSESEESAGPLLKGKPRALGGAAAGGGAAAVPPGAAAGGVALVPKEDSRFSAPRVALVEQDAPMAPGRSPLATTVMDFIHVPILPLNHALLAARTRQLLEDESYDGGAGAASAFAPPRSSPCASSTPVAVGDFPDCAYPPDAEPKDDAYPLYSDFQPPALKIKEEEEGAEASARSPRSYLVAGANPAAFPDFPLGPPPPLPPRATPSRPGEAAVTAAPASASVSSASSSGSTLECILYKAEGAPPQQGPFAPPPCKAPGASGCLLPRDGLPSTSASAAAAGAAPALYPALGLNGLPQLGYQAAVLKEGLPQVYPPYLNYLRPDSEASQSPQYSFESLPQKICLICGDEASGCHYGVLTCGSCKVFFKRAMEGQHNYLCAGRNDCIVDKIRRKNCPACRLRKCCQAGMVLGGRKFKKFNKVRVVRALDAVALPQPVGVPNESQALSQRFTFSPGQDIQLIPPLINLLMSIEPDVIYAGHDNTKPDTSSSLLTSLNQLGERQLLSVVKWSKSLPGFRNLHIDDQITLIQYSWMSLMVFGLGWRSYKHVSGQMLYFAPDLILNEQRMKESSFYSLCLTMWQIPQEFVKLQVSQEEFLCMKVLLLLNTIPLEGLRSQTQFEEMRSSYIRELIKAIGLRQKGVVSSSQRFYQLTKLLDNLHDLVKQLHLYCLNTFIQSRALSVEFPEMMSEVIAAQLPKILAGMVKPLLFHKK
The test is described as follows: PR competitive binding assay. The note with it: Cheng-Prusoff.
Protocol: After correcting for non-specific binding, IC50 values were determined. […] The IC50 value was determined graphically from a log-logit plot of the data. The Ki values were determined by application of the Cheng-Prusoff equivuation to the IC50 values, the labeled ligand concentration and the Kd of the labeled ligand.

For test [2], the target named is T1, PR. As to the kind of experiment: Co-transfection assay, PR agonist activity (CV-1 cells). In kind it is cell-based. On the set-up: expressed in transfected cells; host or cells: CV-1 cells. The note with it: for EC50: agonist potency EC50; for PR Agonist CV-1 Cells Efficacy (%): percent maximal response relative to reference agonist progesterone.
Test [3] concerns the target T1, PR. The test is described as follows: Co-transfection assay, PR antagonist activity (CV-1 cells, in presence of progesterone). Type of test: cell-based. Also on record: expressed in transfected cells; host or cells: CV-1 cells. The note with it: for PR Antagonist CV-1 Cells Efficacy (%): percent maximal inhibition, progesterone at its EC50.
For test [4], the target named is T2, human AR (Homo sapiens, UniProt P10275).
T2 sequence (P10275 1-920): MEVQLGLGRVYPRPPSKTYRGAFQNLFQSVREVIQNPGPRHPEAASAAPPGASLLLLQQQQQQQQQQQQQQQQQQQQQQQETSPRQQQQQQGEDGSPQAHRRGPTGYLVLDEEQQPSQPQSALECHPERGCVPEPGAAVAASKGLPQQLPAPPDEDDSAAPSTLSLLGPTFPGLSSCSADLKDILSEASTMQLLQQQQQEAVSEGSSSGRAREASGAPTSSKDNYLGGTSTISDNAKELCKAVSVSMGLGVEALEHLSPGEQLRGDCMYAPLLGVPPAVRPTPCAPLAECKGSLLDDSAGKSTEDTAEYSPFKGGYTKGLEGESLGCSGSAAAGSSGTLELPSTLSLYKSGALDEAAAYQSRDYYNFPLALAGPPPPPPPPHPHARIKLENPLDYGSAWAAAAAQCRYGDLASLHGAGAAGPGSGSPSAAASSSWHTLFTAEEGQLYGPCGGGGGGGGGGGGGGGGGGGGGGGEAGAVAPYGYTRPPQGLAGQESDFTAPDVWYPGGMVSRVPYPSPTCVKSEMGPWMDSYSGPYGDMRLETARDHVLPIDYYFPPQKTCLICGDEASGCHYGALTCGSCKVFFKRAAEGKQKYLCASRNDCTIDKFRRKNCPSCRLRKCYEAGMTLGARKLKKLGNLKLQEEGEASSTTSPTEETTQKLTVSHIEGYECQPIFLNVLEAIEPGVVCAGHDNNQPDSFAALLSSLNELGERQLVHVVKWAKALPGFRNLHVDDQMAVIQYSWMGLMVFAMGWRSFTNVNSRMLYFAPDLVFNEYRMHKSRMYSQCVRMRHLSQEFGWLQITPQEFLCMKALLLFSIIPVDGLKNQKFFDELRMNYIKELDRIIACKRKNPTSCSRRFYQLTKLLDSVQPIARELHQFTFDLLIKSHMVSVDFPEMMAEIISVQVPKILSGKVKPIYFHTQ
As to the kind of experiment: Co-transfection assay, AR agonist activity (CV-1 cells, MTV-LUC reporter). Type of test: cell-based. As to conditions: CV-1 cells; for EC50: agonist potency EC50.

Test [5] addresses T2, human AR. As to the kind of experiment: Co-transfection assay, AR antagonist activity (CV-1 cells, in presence of DHT). The note with it: for AR Antagonist CV-1 Cells Efficacy (%): percent maximal inhibition, DHT at its EC50; for IC50: read-out: AR Antagonist CV-1 Cells Potency. In kind it is cell-based.
Test [6] has as its target T2, human AR. The test is described as follows: AR whole cell competitive binding assay (COS-1 cells, 3H-DHT). As to conditions: 1 nM 3H-DHT, Cheng-Prusoff.
Setting [7] is: read-out: PR Antagonist CV-1 Cells Potency.

The compound `CCCC(C)N(CCC)c1ccc2[nH]c(=O)cc(C(F)(F)F)c2c1` (racemic) [Compound 251, (±)-6-(N-Propyl-N-1-methylbutyl)amino-4-trifluoromethyl-2(1H)-quinolinone] displayed a Ki at PR [1] of 930 nM. Also, on PR [2], the 50% effective concentration (EC50) is more than 10000 nM; the “PR Agonist CV-1 Cells Efficacy (%)” value was “na (na = not active (i.e. efficacy of <20 and potency of >10,000))”. On PR [3], the IC50 was 747 nM and the “PR Antagonist CV-1 Cells Efficacy (%)” value came out at 91%.
The compound `O=c1cc(C(F)(F)F)c2cc(-c3cccc([N+](=O)[O-])c3)ccc2[nH]1` [Compound 727, 4-Trifluoromethyl-6-(3-nitro)phenyl-2(1H)-quinolinone] displayed a Ki at PR [1] of 161 nM. Further, on PR [2], the EC50 is more than 10000 nM; the “PR Agonist CV-1 Cells Efficacy (%)” value is “na (na = not active (i.e. efficacy of <20 and potency of >10,000))”. Besides, at PR [3], the IC50 came to 108 nM and the “PR Antagonist CV-1 Cells Efficacy (%)” value is 90%.
Consider `CC(=O)c1cccc(-c2ccc3[nH]c(=O)cc(C(F)(F)F)c3c2)c1` [Compound 735, 4-Trifluoromethyl-6-(3-acetylphenyl)-2(1H)-quinolinone], for which the Ki on PR [1] was determined as 915 nM. Moreover, at PR [2], the EC50 is more than 10000 nM; the “PR Agonist CV-1 Cells Efficacy (%)” value was “na (na = not active (i.e. efficacy of <20 and potency of >10,000))”. In addition, on PR [3], the IC50 stood at 326 nM and the “PR Antagonist CV-1 Cells Efficacy (%)” value is 84%.
On to `CCN(CC(C)(C)C)c1ccc2[nH]c(=O)cc(C(F)(F)F)c2c1` [Compound 242, 6-(N-Ethyl-N-2,2-dimethylpropyl)amino-4-trifluoromethyl-2(1H)-quinolinone], for which the EC50 at human AR [4] is 2.8 nM; at PR [2], more than 10000 nM. Also, at human AR [4] (percent maximal response relative to reference agonist DHT), the “AR Agonist CV-1 Cells Efficacy (%)” value was 66%. At human AR [5], the “AR Antagonist CV-1 Cells Efficacy (%)” value was “na (na = not active (i.e. efficacy of <20 and potency of >10,000))”. Further, the IC50 at human AR [5] was more than 10000 nM; on PR [3], 200 nM. In addition, the results for the Ki at human AR [6] and on PR [1] were 32 nM and 70 nM, respectively. Besides, at PR [2], the “PR Agonist CV-1 Cells Efficacy (%)” value was “na (na = not active (i.e. efficacy of <20 and potency of >10,000))”. The “PR Antagonist CV-1 Cells Efficacy (%)” value on PR [3] is recorded as 95%.
Take `CC(C)CN(CC(F)(F)F)c1cc2c(C(F)(F)F)cc(=O)[nH]c2cc1O` [Compound 473, 6-(N-Isobutyl-N-2,2,2-trifluoroethyl)amino-7-hydroxy-4-trifluoromethyl-2(1H)-quinolinone]: the affinity at PR [1], expressed as Ki, was 508 nM. Besides, on PR [2], the EC50 was more than 10000 nM; the “PR Agonist CV-1 Cells Efficacy (%)” value was “na (na = not active (i.e. efficacy of <20 and potency of >10,000))”. In addition, on PR [3], the IC50 turned out to be 880 nM and the “PR Antagonist CV-1 Cells Efficacy (%)” value turned out to be 55%.
With `CC1(C)OC(=S)Nc2ccc(C3=CC(O)CCC3)cc21` (racemic) [Compound 697, (±)-6-(3-Hydroxy-1-)cyclohexenyl-1,4-dihydro-4,4-dimethyl-1,3-benzo[d]oxazin-2-thione], at PR [1], the Ki is more than 1000 nM. On PR [2], the EC50 is more than 10000 nM; the “PR Agonist CV-1 Cells Efficacy (%)” value is “na (na = not active (i.e. efficacy of <20 and potency of >10,000))”. Besides, at PR [3], the “PR Antagonist CV-1 Cells Efficacy (%)” value came out at 58%. Besides, on PR [3] (setting [7]), the IC50 was 316 nM.
Take `CN(C)c1ccc([C@H]2C[C@]3(C)[C@@H](CC[C@]3(O)CCCO)[C@@H]3CCC4=CC(=O)CCC4=C32)cc1` [ZK299, reference compound]: the “PR Agonist CV-1 Cells Efficacy (%)” value on PR [2] is “na (na = not active (i.e. efficacy of <20 and potency of >10,000))”. Moreover, the “PR Antagonist CV-1 Cells Efficacy (%)” value at PR [3] was 95%.
The compound `N#Cc1cc(F)cc(-c2ccc3[nH]c(=O)cc(C(F)(F)F)c3c2)c1` [Compound 731, 4-Trifluoromethyl-6-(3-fluoro-5-cyano)phenyl-2(1H)-quinolinone] registered a Ki on PR [1] of 154 nM. On PR [2], the EC50 is more than 10000 nM; the “PR Agonist CV-1 Cells Efficacy (%)” value was “na (na = not active (i.e. efficacy of <20 and potency of >10,000))”. For the same compound, on PR [3], the IC50 turned out to be 64 nM and the “PR Antagonist CV-1 Cells Efficacy (%)” value is on record as 89%.
With `CC(=O)[C@H]1CC[C@H]2[C@@H]3CCC4=CC(=O)CC[C@]4(C)[C@H]3CC[C@]12C` [Prog, progesterone, reference compound], the “PR Agonist CV-1 Cells Efficacy (%)” value at PR [2] worked out at 100%. Further, the “PR Antagonist CV-1 Cells Efficacy (%)” value on PR [3] is “na (na = not active (i.e. efficacy of <20 and potency of >10,000))”.
As to `O=c1cc(C(F)(F)F)c2cc(-c3cccc(F)c3F)ccc2[nH]1` [Compound 725, 6-(2,3-Difluoro)phenyl-4-trifluoromethyl-2(1H)-quinolinone], the EC50 on human AR [4] and on PR [2] was more than 10000 nM throughout. At human AR [5], the “AR Antagonist CV-1 Cells Efficacy (%)” value is 87%. Besides, the IC50 on human AR [5] turned out to be 79 nM; on PR [3] it was 149 nM. In addition, the Ki on human AR [6] is more than 1000 nM; at PR [1], 400 nM. At PR [2], the “PR Agonist CV-1 Cells Efficacy (%)” value is “na (na = not active (i.e. efficacy of <20 and potency of >10,000))”. The “PR Antagonist CV-1 Cells Efficacy (%)” value on PR [3] came out at 92%.
For `CC1(C)OC(=O)Nc2ccc(C3CCCCCC3)cc21` [Compound 671, 6-(1-Cycloheptyl)-1,4-dihydro-4,4-dimethyl-1,3-benzo[d]oxazin-2-one], on PR [1], the Ki was more than 1000 nM. Moreover, on PR [2], the EC50 is more than 10000 nM; the “PR Agonist CV-1 Cells Efficacy (%)” value was “na (na = not active (i.e. efficacy of <20 and potency of >10,000))”. For the same compound, at PR [3], the “PR Antagonist CV-1 Cells Efficacy (%)” value was 62%. The IC50 at PR [3] (setting [7]) turned out to be 200 nM.
In turn, `FC(F)(F)c1cc(=S)[nH]c2ccc(C3CCCCC3)cc12` [Compound 631, 6-Cyclohexyl-4-trifluoromethyl-2(1H)-thioquinolinone] returned a Ki on PR [1] of 136 nM. Further, at PR [2], the EC50 is more than 10000 nM; the “PR Agonist CV-1 Cells Efficacy (%)” value is “na (na = not active (i.e. efficacy of <20 and potency of >10,000))”. In addition, at PR [3], the IC50 worked out at 796 nM and the “PR Antagonist CV-1 Cells Efficacy (%)” value was 75%.
For the compound `CC1(C)OC(=S)Nc2ccc(C3=CC(=O)CCC3)cc21` [Compound 695, 6-(3-Oxo-1-)cyclohexenyl-1,4-dihydro-4,4-dimethyl-1,3-benzo[d]oxazin-2-thione], the affinity at PR [1] corresponds to a Ki of 203 nM. At PR [2], the EC50 was more than 10000 nM; the “PR Agonist CV-1 Cells Efficacy (%)” value is “na (na = not active (i.e. efficacy of <20 and potency of >10,000))”. The “PR Antagonist CV-1 Cells Efficacy (%)” value on PR [3] was 90%. Also, the IC50 on PR [3] (setting [7]) was 20 nM.
